Reference: US20160310467A1, “ONDANSETRONE TO REVERSAL OF THE SOFT TISSUE ANESTHESIA” (priority 2015, published 2016)

What was measured:
[1] = spinal anesthesia with bupivacaine; cited from earlier work
[2] = cited from earlier work
[3] = reversal of the local anesthesia effect by applying ondansetrone to the same soft tissue area; format: in vivo; settings: ondansetrone applied to the same area where local anesthesia is applied; dose according to patient and to type and dosage of local anesthetic
Text: Invention is about the reversal of the effect of the local anesthetic applied to the soft tissue, in a short time period by applying ondansetrone, which is a 5-hydroxytriptamine (5-HT3) antagonist, to the same area. And it is also about the removal of the problems encountered by local anesthesia.
Anesthesia implementations can be classified as local anesthesia, regional anesthesia and general anesthesia. Local anesthesia is the temporarily blockage of carrying the painful stimulations by nerve tracks. Only the surgery area is anesthetized with the local anesthesia. […] Local anesthesia effect can last from as few hours up to five hours. During that period, the problems that patient has to face because of being effected by local anesthesia are described in detail in the prior art section. The solution of these problems is reversal of the effect of the local anesthesia by the doctor in a short time after finishing the operation. Because of the effects of the local anesthetics can take hours to be removed by their selves. In the studies of mine about reversal of that local anesthesia effect, ondansetrone, which is a 5-hidroksitriptamin (5-HT3) antagonist, is implemented to the same area according to patient's situation (age, weight, sensitivity etc.) and to type and dosage of local anesthetic were local anesthesia is applied. […]

| Structure (SMILES) | reversal of the sensorial block [1] | regression of the sensorial block level ([2]; subarachnoid anesthesia by lidocaine) | effect on sensorial block level ([2]; subarachnoid anesthesia by ropivacaine) | reversal of the effect of the local anesthetic [3] |
| --- | --- | --- | --- | --- |
| CN1C2CCCC1CC(NC(=O)c1nn(C)c3ccccc13)C2 (stereo not shown) [granisetron] | accelerates the reversal of the sensorial block |  |  |  |
| Cc1nccn1CC1CCc2c(c3ccccc3n2C)C1=O (stereo not shown) [ondansetrone] |  | accelerates the regression of the sensorial block level | no effect in sensorial block level | antagonizes the effect of the local anesthetic in a short time (a few minutes) |
